From patent US8586542B2, “Small molecule apoptosis promoters” (Joyant Pharmaceuticals, Inc., priority 2006, dated 2013) come the findings set out here.

Read-outs that look alike come from different tables or passages of the source.

The test system of one experiment is HCC461 cells. Kind of experiment: Cell viability assay in HCC461 cells (WST-1). It counts as cell-based. To be noted: read-out: HCC461 cell. The procedure:
HCC461 cells plated in 96 well plates at 5×10^4/ml cell density are treated with 50× synthetic Smac mimetic compounds (final concentration range between 30 uM and 0.001 uM). After 48 hrs incubation at 37° C. and 5% CO2, viability of the cells are measured using Cell Proliferation Reagent WST-1 assay kit (Roche Cat #11 644 807 001).
The tetrazolium salts are cleaved to formazan by cellular enzymes. An expansion in the number of viable cells results in an increase in the overall activity of mitochondrial dehydrogenases in the samples. This augmentation in the enzyme activity leads to an increase in the amount of formazan dye formed, which directly correlates to the number of metabolically active cells in the culture. Quantification of the formazan dye produced by metabolically active cells by using a microplate (ELISA) reader at 420-480 nm.

The subject of the next experiment is Caspase3 in Hela S100. Kind of experiment: In-vitro caspase-3 activation assay in Hela S100 extract. It counts as biochemical. The following applies: 100 nM compound, Hela S100, 1 mM dATP; slope versus control (compound 1 = Caspase std.). The procedure:
Caspase3 in most cell extracts can be activated by the addition of 1 mM dATP through the mitochondria caspase pathway. […] Taking advantage of this feature, we use 100 nM of synthetic Smac mimetic compound to test its ability to eliminate IAPB in the Hela S100 and fully induce Caspase3 activity. The In Vitro Caspase3 assay is carried out at 30° C., incubating 100 nM compounds with 30 ug of Hela S100, 1 mM dATP, 10 uM Caspase3 fluorogenic substrate (Caspase3 Substrate II, Fluorogenic, #235425 from Calbiochem). The readout is caspase-3 activity represented by relative fluorogenic unit, which is recorded kinetically. The slope in linear region of the curve for each compound is calculated.
The ratio of each synthetic compound's slope versus the slope of control reflects in vitro caspase-3 activation ability of compounds.

Experiment [1] has as its target T1, truncated XIAP containing only BIR1, BIR2, and BIR3 domains (Homo sapiens, UniProt P98170).
T1 construct: truncated XIAP containing only BIR1, BIR2, and BIR3 domains
The experiment in a line: Fluorescent polarization assay (Bir binding). The following applies: competition with 2 nM fluorescein labeled AVPI peptide, room temperature, 1 hour. The procedure:
Increasing concentrations of Smac compounds are incubated with 2 nM of labeled peptide (fluorescein labeled 10 mer peptide with AVPI 4 amino acids at its N terminus-Alexa Fluor 488) and truncated XIAP containing only BIR1, BIR2, and BIR3 domains at room temperature for 1 hour. Fluorescence reading, indicative of the bound portion of the labeled peptide, is measured in milipolarization units (mP). The more compound added, less fluorescein labeled peptide bind to the protein due to the competitive binding and less fluorescence signal is released.
Based on this principle, we obtain the Ki value that evaluates compound's binding affinity.

The mark [2] stands for this setting: HCC461, 48 hrs incubation, WST-1 viability.

T1 sequence (P98170 1-356 limits assumed): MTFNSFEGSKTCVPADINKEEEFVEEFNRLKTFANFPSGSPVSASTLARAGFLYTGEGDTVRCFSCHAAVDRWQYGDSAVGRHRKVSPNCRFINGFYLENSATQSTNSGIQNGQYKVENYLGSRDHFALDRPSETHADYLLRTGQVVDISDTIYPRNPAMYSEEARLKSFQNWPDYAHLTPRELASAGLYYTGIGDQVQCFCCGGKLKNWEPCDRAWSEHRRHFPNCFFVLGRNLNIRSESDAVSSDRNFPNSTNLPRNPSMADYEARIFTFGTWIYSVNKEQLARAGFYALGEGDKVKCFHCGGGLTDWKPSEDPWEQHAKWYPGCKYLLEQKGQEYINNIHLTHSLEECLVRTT

Take `CN[C@@H](C)C(=O)N[C@@H](CC#CC#CC[C@H](NC(=O)[C@H](C)NC)C(=O)N1CCC[C@H]1C(=O)N[C@@H]1CCCc2ccccc21)C(=O)N1CCC[C@H]1C(=O)N[C@@H]1CCCc2ccccc21` [Compound 1]: in the experiment on HCC461 cells (HCC461, 48 h), the IC50 was found to be 4 nM. Further, in the experiment with Caspase3 in Hela S100, the Caspase % is on record as 100%. Besides, the Bir binding in experiment [1] came out at 0.07 µM.
As to `CN[C@@H](C)C(=O)N[C@@H](CCCCCC[C@H](NC(=O)[C@H](C)NC)C(=O)N1CCC[C@H]1C(=O)N[C@@H]1CCCc2ccccc21)C(=O)N1CCC[C@H]1C(=O)N[C@@H]1CCCc2ccccc21` [Compound 2], the IC50 in the experiment on HCC461 cells (HCC461, 48 h) amounted to 10 nM. This compound yielded a Caspase % with Caspase3 in Hela S100 of 105%. The compound also gave a Bir binding in experiment [1] of 0.15 µM.
On to `CNC(C)C(=O)N[C@@H](CC#CC#CC[C@H](NC(=O)[C@H](C)NC)C(=O)N1CCC[C@H]1C(=O)NC(c1ccccc1)c1ccccc1)C(=O)N1CCC[C@H]1C(=O)NC(c1ccccc1)c1ccccc1` (some centres unmarked) [Compound 3], for which, in the experiment with HCC461 cells (setting [2]), the IC50 was found to be 26 nM. Also, in the experiment on Caspase3 in Hela S100, the Caspase % was determined as 48%. For the same compound, in experiment [1], the Bir binding worked out at 0.12 µM.
Taken in the same sequence, the figures for `CNC(C)C(=O)N[C@@H](CCCCCC[C@H](NC(=O)[C@H](C)NC)C(=O)N1CCC[C@H]1C(=O)NC(c1ccccc1)c1ccccc1)C(=O)N1CCC[C@H]1C(=O)NC(c1ccccc1)c1ccccc1` (some centres unmarked) [Compound 4] were 25 nM, 55% and 0.11 µM.
For the compound `CNC(C)C(=O)N[C@@H](CCCCCC[C@H](NC(=O)[C@H](C)NC)C(=O)N1CCC[C@H]1C(=O)NCc1ccccc1)C(=O)N1CCC[C@H]1C(=O)NCc1ccccc1` (some centres unmarked) [Compound 6], in the experiment on HCC461 cells (setting [2]), the IC50 came out at 2100 nM. In addition, the Caspase % in the experiment with Caspase3 in Hela S100 was determined as 82%. Moreover, in experiment [1], the Bir binding came out at 0.2 µM.
Taken in the same sequence, the figures for `CN[C@@H](C)C(=O)N[C@@H](CC#CC#CC[C@H](NC(=O)[C@H](C)NC)C(=O)N1CCC[C@H]1C(=O)NC(C)c1ccccc1)C(=O)N1CCC[C@H]1C(=O)NC(C)c1ccccc1` (some centres unmarked) [Compound 7] were 373 nM, 101% and 0.144 µM.
With `CN[C@@H](C)C(=O)N[C@@H](CCCCCC[C@H](NC(=O)[C@H](C)NC)C(=O)N1CCC[C@H]1C(=O)NC(C)c1ccccc1)C(=O)N1CCC[C@H]1C(=O)NC(C)c1ccccc1` (some centres unmarked) [Compound 8], the IC50 in the experiment on HCC461 cells (setting [2]) stood at 70 nM. The compound further had a Caspase % in the experiment with Caspase3 in Hela S100 of 93%. Moreover, the Bir binding in experiment [1] was found to be 0.27 µM.
Taken in the same sequence, the figures for `CC[C@H](NC)C(=O)N[C@@H](CC#CC#CC[C@H](NC(=O)[C@H](CC)NC)C(=O)N1CCC[C@H]1C(=O)N[C@@H]1CCCc2ccccc21)C(=O)N1CCC[C@H]1C(=O)N[C@@H]1CCCc2ccccc21` [Compound 9] were 9 nM, 108% and 0.196 µM.
Turning to `CC[C@H](NC)C(=O)N[C@@H](CCCCCC[C@H](NC(=O)[C@H](CC)NC)C(=O)N1CCC[C@H]1C(=O)N[C@@H]1CCCc2ccccc21)C(=O)N1CCC[C@H]1C(=O)N[C@@H]1CCCc2ccccc21` [Compound 10], the IC50 with HCC461 cells (setting [2]) turned out to be 20 nM. The Caspase % in the experiment with Caspase3 in Hela S100 is recorded as 105%. The compound further had a Bir binding in experiment [1] of 0.2 µM.
Taken in the same sequence, the figures for `CN[C@@H](C)C(=O)N[C@H](C(=O)N1CCC[C@H]1C(=O)N[C@@H]1CCCc2ccccc21)[C@@H](C)OCC#CC=CCO[C@H](C)[C@H](NC(=O)[C@H](C)NC)C(=O)N1CCC[C@H]1C(=O)N[C@@H]1CCCc2ccccc21.Cl.Cl` [Compound 11] were 12 nM, 94% and 0.172 µM.
Taken in the same sequence, the figures for `CN[C@@H](C)C(=O)N[C@@H](CC#CC#CCO[C@H](C)[C@H](NC(=O)[C@H](C)NC)C(=O)N1CCCC1C(=O)N[C@@H]1CCCc2ccccc21)C(=O)N1CCCC1C(=O)N[C@@H]1CCCc2ccccc21.Cl.Cl` (some centres unmarked) [Compound 13] were 70 nM, 105% and 0.188 µM.
For `CN[C@@H](C)C(=O)N[C@H](C(=O)N1CCCC1C(=O)N[C@@H]1CCCc2ccccc21)[C@@H](C)OCCCCCCO[C@H](C)[C@H](NC(=O)[C@H](C)NC)C(=O)N1CCC[C@H]1C(=O)N[C@@H]1CCCc2ccccc21.Cl.Cl` (some centres unmarked) [Compound 14], the IC50 in the experiment on HCC461 cells (setting [2]) came out at 620 nM. Further, the Caspase % in the experiment with Caspase3 in Hela S100 is on record as 104%. For the same compound, in experiment [1], the Bir binding is 0.158 µM.
Taken in the same sequence, the figures for `CCC[C@H](NC)C(=O)N[C@@H](CC#CC#CC[C@H](NC(=O)[C@H](C)NC)C(=O)N1CCC[C@H]1C(=O)N[C@@H]1CCCc2ccccc21)C(=O)N1CCC[C@H]1C(=O)N[C@@H]1CCCc2ccccc21.Cl.Cl` [Compound 15] were 80 nM, 87% and 0.638 µM.
Taken in the same sequence, the figures for `CC[C@H](NC)C(=O)N[C@@H](CC#CC#CC[C@H](NC(=O)[C@H](C)NC)C(=O)N1CCC[C@H]1C(=O)N[C@@H]1CCCc2ccccc21)C(=O)N1CCC[C@H]1C(=O)N[C@@H]1CCCc2ccccc21.Cl.Cl` [Compound 16] were 25 nM, 107% and 0.22 µM.
For `CN[C@@H](C)C(=O)N[C@@H](Cc1cn(CCCn2cc(C[C@H](NC(=O)[C@H](C)NC)C(=O)N3CCC[C@H]3C(=O)N[C@@H]3CCCc4ccccc43)nn2)nn1)C(=O)N1CCC[C@H]1C(=O)N[C@@H]1CCCc2ccccc21.Cl.Cl` [Compound 17], in that order: 690 nM, 98% and 0.136 µM.
Turning to `CN[C@@H](C)C(=O)N[C@@H](Cc1nnn2c1-c1c(C[C@H](NC(=O)[C@H](C)NC)C(=O)N3CCC[C@H]3C(=O)N[C@@H]3CCCc4ccccc43)nnn1CCC2)C(=O)N1CCCC1C(=O)N[C@@H]1CCCc2ccccc21.Cl.Cl` (some centres unmarked) [Compound 18], the IC50 with HCC461 cells (setting [2]) came to 760 nM. The compound further gave a Caspase % with Caspase3 in Hela S100 of 88%. The compound also yielded a Bir binding in experiment [1] of 0.176 µM.
Turning to `CN[C@@H](C)C(=O)N[C@H](C(=O)N1CCC[C@H]1C(=O)N[C@@H]1CCCc2ccccc21)[C@@H](C)OCc1nnn2c1-c1c(CO[C@H](C)[C@H](NC(=O)[C@H](C)NC)C(=O)N3CCC[C@H]3C(=O)N[C@@H]3CCCc4ccccc43)nnn1CCC2.Cl.Cl` [Compound 19], in the experiment on HCC461 cells (setting [2]), the IC50 turned out to be 240 nM. Besides, in the experiment with Caspase3 in Hela S100, the Caspase % was found to be 98%. In addition, in experiment [1], the Bir binding worked out at 0.14 µM.
As to `CN[C@@H](C)C(=O)N[C@@H](Cc1cn(CCn2cc(C[C@H](NC(=O)[C@H](C)NC)C(=O)N3CCC[C@H]3C(=O)N[C@@H]3CCCc4ccccc43)nn2)nn1)C(=O)N1CCC[C@H]1C(=O)N[C@@H]1CCCc2ccccc21.Cl.Cl` [Compound 20], the IC50 with HCC461 cells (setting [2]) was determined as 520 nM. Further, the Caspase % in the experiment on Caspase3 in Hela S100 is 99%. The same compound returned a Bir binding in experiment [1] of 0.18 µM.
For `CN[C@@H](C)C(=O)N[C@@H](Cc1nnn2c1-c1c(C[C@H](NC(=O)[C@H](C)NC)C(=O)N3CCC[C@H]3C(=O)N[C@@H]3CCCc4ccccc43)nnn1CC2)C(=O)N1CCCC1C(=O)N[C@@H]1CCCc2ccccc21.Cl.Cl` (some centres unmarked) [Compound 21], in that order: 2200 nM, 70% and 1.13 µM.
With `CN[C@@H](C)C(=O)N[C@@H](CCCc1ccc([C@H](NC(=O)[C@H](C)NC)C(=O)N2CCC[C@H]2C(=O)N[C@@H]2CCCc3ccccc32)cc1)C(=O)N1CCC[C@H]1C(=O)N[C@@H]1CCCc2ccccc21.Cl.Cl` [Compound 38], the Caspase % in the experiment on Caspase3 in Hela S100 amounted to 102%. The compound also had a Bir binding in experiment [1] of 0.2 µM.
